Test results as given in patent publication US20240298601A1, “SESAME PLANTS RESISTANT TO ACETOLACTATE SYNTHASE-INHIBITING HERBICIDES, COMPOSITIONS AND METHODS FOR PRODUCING SAME” (Yissum Research Development Company of The Hebrew …, priority 2021, published 2024).

Experiments:
[1] = test system: wild type (S-416) sesame plants; assay: Herbicides dose-response assay (post-emergence, pots), wild type; format: in vivo, Sesamum indicum; settings: for ED50 WT: herbicide rate reducing plant growth (shoot DW) by 50%, 16 DAT, sprayed at two true leaves, n=5; for reduction in shoot DW, WT / reduction in shoot length, WT: under the recommended dose; for response of WT plants in dose-response assay: increasing doses
[2] = test system: SiRM plants (mutant SiALS Ala188Val); settings: for ED50 SiRM: herbicide rate reducing plant growth (shoot DW) by 50%, 16 DAT, n=5, calculated from fitted curve, for Imazamox above the tested rates; for RI (resistance index): resistance/susceptible ratio of the ED50 (SiRM vs WT); for reduction in shoot DW, SiRM / reduction in shoot length, SiRM: under the recommended dose; for dose up to which SiRM plants were not affected: post-emergence dose-response; for response of SiRM plants in dose-response assay: increasing doses
WT (S-416) plants = assay: Physiological characterization under Imazamox, WT parental line; format: in vivo, Sesamum indicum; settings: Imazamox 48 g a.i. h^−1
Experimental: (§1) A cross between SiRM (♂) and the WT (♀) was made to produce F1 seeds. […] The pots were placed in a growth chamber under long-day conditions (16/8 light/dark and 32/25° C.). […] Plants were characterized daily for canopy coverage (Canopeo software, Oklahoma State University, USA; Patrignani and Ochsner, 2015. Agronomy Journal, 107:2312-2320) and gas exchange (IRGA 6800; Li-Cor, Lincoln, Nebraska, USA), over the next 11 days. At the end of the experiment, 21 DAT, the aboveground material was harvested, oven-dried (80° C., 48 h), and weighed to obtain shoot DW.

Amaranthus palmeri [3] = assay: Imazamox post-emergence field experiment, weed control; format: in vivo; settings: Imazamox 40 g a.i. h^−1, non-treated ~12 plants m^−1
Experimental: The experiment was conducted in the Experimental Farm of the Hebrew University of Jerusalem in Rehovot, Israel ([…]; 54 m above sea level). The soil at this location is brown-red, degrading, sandy soil (Rhodoxeralf), composed of 76% sand, 8% silt, and 16% clay. […] Each plot consisted of a 5-meter row, with a sowing density of 7-plants m^−1 (n=6). At the end of the season, the survival rate was analyzed (number of plants per plot) and the plants in the plot were harvested. Samples were threshed using a laboratory thresher (Wintersteiger AG LD 350, Austria) and after sifting, the seeds were weighed to obtain seed yield.
To test the efficiency of Imazamox for weed control, Amaranthus palmeri was used as a model. Seeds of A. palmeri were sown (20-seeds m-1) as competitor weeds alongside the two sesame lines described above. As a negative control, plots that were not treated were used. At the end of the experiment, the number of A. palmeri plants per plot was counted.

WT plants (S-416) = assay: Imazamox spraying for resistance validation, WT; format: in vivo, Sesamum indicum; settings: Imazamox 48 g a.i. ha^−1; seven days after spraying
[4] = test system: hybrid (F1) plants (SiRM x WT); assay: Physiological characterization of F1 hybrid plants under Imazamox; format: in vivo, Sesamum indicum; settings: Imazamox 48 g a.i. h^−1
Experimental: as §1

mutant plants (SiRM) = assay: Imazamox spraying for resistance validation, M3 mutant plants; settings: Imazamox 48 g a.i. ha^−1; seven days after spraying
Description: Genomic DNA was extracted using the CTAB protocol, with modification for sesame as described before (Teboul et al., 2020. Genes, 11, 1221). To test possible mutation(s) in the SiALS gene, a targeted sequencing was applied using four primer pairs covering the whole gene sequence (Table 1) according to the sequenced sesame genome (Zhongzhi No. 13; Wang et al., 2014. Genome Biology, 15:1-13). The gene was amplified, and PCR products were sequenced (HUJI genome center, Israel). Sequence alignment was performed using the Clustal Omega tool (Madeira et al., 2019. Nucleic Acids Research, 47:636-641).

WT (S-416) sesame = assay: Imazamox post-emergence field experiment, WT sesame; format: in vivo, Sesamum indicum; settings: Imazamox 40 g a.i. h^−1
SiRM plants [5] = assay: Physiological characterization under Imazamox, SiRM parental line; format: in vivo, Sesamum indicum; settings: Imazamox 48 g a.i. h^−1
Experimental: as §1

SiRM plants [6] = assay: Imazamox post-emergence field experiment, SiRM sesame; format: in vivo, Sesamum indicum
SiRM plants [7] = assay: Field observation after Imazapic recommended dose, SiRM; format: in vivo, Sesamum indicum; settings: Imazapic 48 g a.i. h^−1
SiRM plants [8] = settings: pre-emergence
Abutilon Theophrastus = assay: 2021 field trial, Imazapic pre-emergence, weed control; format: in vivo; settings: pre-emergence Imazapic 48 g a.i. ha^−1; field 2021
Experimental: (§2) An additional field experiment was conducted during the summer of 2021 at the Experimental Farm of the Hebrew University of Jerusalem, Rehovot, Israel. A split-plot random block design with six replicates was applied. Treatments included: weed-free plots (i.e., manual weeding), untreated control (i.e., herbicide-free treatment) and application of Imazapic (48 g a.i. ha^−1) pre-germination. The plot size was 3.6 m×0.8 m (10 cm between plants) with two rows per plot. To evaluate the efficacy of weed control, two weeds were sown on the sesame sowing lines (Amaranthus Palmeri, 500 seeds per plot, and Abutilon Theophrastus, 70 seeds per plot). Phenological characterization was conducted during the growing season for the flowering date, the number of brunches per plant and the height to the first capsule. At the end of the growing season, the number of weeds per plot was counted and weeds were harvested for dry weight measurements. Sesame plants were harvested 1 m from the middle of the plot, samples were threshed using a laboratory thresher (Wintersteiger AG LD 350, Austria), and after sifting, the seeds were weighed to obtain seed yield.

Amaranthus palmeri [9] = assay: as above; format: in vivo; settings: pre-emergence Imazapic 48 g a.i. ha^−1; field 2021
Experimental: as §2

WT plants [10] = assay: Field observation after Imazapic recommended dose, WT; format: in vivo, Sesamum indicum; settings: Imazapic 48 g a.i. h^−1
WT plants [11] = assay: Imazapic pre-emergence pot experiment, WT; format: in vivo, Sesamum indicum
[12] = test system: resistant plants of the invention (SiRM); assay: 2021 field trial, Imazapic pre-emergence, sesame performance; format: in vivo, Sesamum indicum; settings: pre-emergence Imazapic 48 g a.i. ha^−1
Experimental: as §2

SiRM plants [13] = assay: Roots development under increasing dosages of Imazapic; format: in vivo, Sesamum indicum; settings: pre-emergence; 24, 48, 96 and 192 g a.i. ha^−1; sandy soil; 14 DAT

COc1ncc(F)c2nc(S(=O)(=O)Nc3c(F)cccc3F)nn12 [Florasulam, N-(2,6-difluorophenyl)-8-fluoro-5-methoxy-[1,2,4]triazolo[1,5-c]pyrimidine-2-sulfonamide]
ED50 WT [1]: 31 g a.i. ha^−1
ED50 SiRM [2]: 62 g a.i. ha^−1
RI (resistance index) [2]: 2

COc1cc(OC)nc(NC(=O)NS(=O)(=O)c2cc(NC=O)ccc2C(=O)N(C)C)n1 [Foramsulfuron, 2-[(4,6-dimethoxypyrimidin-2-yl)carbamoylsulfamoyl]-4-formamido-N,N-dimethylbenzamide]
ED50 WT [1]: 41 g a.i. ha^−1
reduction in shoot DW, WT [1]: 25%
reduction in shoot length, WT [1]: 64%
ED50 SiRM [2]: 165 g a.i. ha^−1
RI (resistance index) [2]: 3.95
reduction in shoot DW, SiRM [2]: 8%
reduction in shoot length, SiRM [2]: 58%

COCc1cnc(C2=NC(C)(C(C)C)C(=O)N2)c(C(=O)O)c1 (stereo not shown) [Imazamox, 5-(methoxymethyl)-2-(4-methyl-5-oxo-4-propan-2-yl-1H-imidazol-2-yl) pyridine-3-carboxylic acid]
ED50 WT [1]: 18 g a.i. ha^−1
dose at which WT plants already exhibited visual symptoms and reduced shoot DW ([1]; post-emergence dose-response): 6 g a.i. ha^−1
state of WT plants at the end of the experiment (WT (S-416) plants; 21 DAT): fully eradicated
assimilation rate of WT (WT (S-416) plants; after 48 h): < 20%
number of A. palmeri plants (Amaranthus palmeri [3]): ~0 A. palmeri plants per meter plot
visual symptoms, WT (WT plants (S-416)): reduced growth and meristem damages
recovery of assimilation, hybrid plants [4]: after six days they fully recovered
reduction in plant height, hybrid plants ([4]; 21 DAT): ~40%
reduction in shoot DW, hybrid plants ([4]; 21 DAT): ~35%
nodes to the first flower, hybrid plants treated ([4]; UTC 5.6): 11.4 nodes
nodes length, hybrid plants treated ([4]; UTC 8.0): 2.4 cm
height of first flower bud, hybrid plants treated ([4]; UTC 44.6): 27.6 cm
visual symptoms, SiRM (mutant plants (SiRM)): did not display any visual symptoms
reduction in WT sesame stand (WT (S-416) sesame; field, P<0.0001): 75%
seed yield per plant, WT (WT (S-416) sesame; weed-free control 3.6, P=0.0015): 0.93 g per plant
seed yield per plot, WT (WT (S-416) sesame; weed-free control 19, P=0.0002): 1.6 g
state of SiRM plants at the end of the experiment (SiRM plants [5]; 21 DAT): showed no effect of Imazamox treatment
recovery of assimilation, SiRM (SiRM plants [5]; after 48 h): recover completely and did not differ from the UTC plants
increment in shoot DW compared with untreated control plants ([2]; SiRM, low doses of 3, 6 and 12 g a.i. h^−1): 50%
ED50 SiRM [2]: 823 g a.i. ha^−1
RI (resistance index) [2]: 45
seed yield per plot, SiRM (SiRM plants [6]; Imazamox 40 g a.i. h^−1, control 16.7, P=0.02): 31.5 g
effect on the SiRM plots stand (SiRM plants [6]; Imazamox 40 g a.i. h^−1, field): no significant effect
seed yield per plant, SiRM (SiRM plants [6]; Imazamox 40 g a.i. h^−1, weed-free control 2.88, P=0.011): 6.05 g per plant
yield of SiRM compared to the corresponding weed-free UTC (SiRM plants [6]; field conditions, post-emergence): two-fold greater yield

Cc1cnc(C2=NC(C)(C(C)C)C(=O)N2)c(C(=O)O)c1 (stereo not shown) [Imazapic, 5-methyl-2-(4-methyl-5-oxo-4-propan-2-yl-1H-imidazol-2-yl) pyridine-3-carboxylic acid]
state of SiRM plants in the field (SiRM plants [7]): only slightly affected and showed a five-day delay in shoot development and flowering time
reduction in growth of WT ([1]; at 6 g a.i. h^−1, P=0.0055): 18%
ED50 WT [1]: 236 g a.i. ha^−1
survival rate, SiRM (SiRM plants [8]; 48, 96 and 144 g a.i. h^−1, clay soil): 100%
development of SiRM plants (SiRM plants [8]; 144 g a.i. h^−1): developed normally without any visual differences compared to the untreated control
canopy coverage, SiRM (SiRM plants [8]; 144 g a.i. h^−1, 14 days after sowing): maintained similar values
root length, SiRM (SiRM plants [8]; 144 g a.i. h^−1, control 72, P=0.106): 85 mm
control of Abutilon (Abutilon Theophrastus): didn't develop beyond the cotyledons
control of A. Palmeri (Amaranthus palmeri [9]): didn't emerge (full-control)
state of WT plants in the field (WT plants [10]): dead already 10 DAT
rate at which SiRM exhibited severe damage symptoms ([2]; 16X): 768 g a.i. h^−1
ED50 SiRM [2]: 563 g a.i. ha^−1
dose up to which SiRM plants were not affected [2]: ≤ 96 g a.i. h^−1
RI (resistance index) [2]: 2.4
development of WT plants (WT plants [11]; 144 g a.i. h^−1): fully controlled and did not develop beyond the growth of the cotyledons
canopy coverage, WT (WT plants [11]; 144 g a.i. h^−1, 14 days after sowing, control 2.23, P=0.0008): 0.27 % of coverage
root length, WT (WT plants [11]; 144 g a.i. h^−1, control 82): 5 mm
height to the first capsule [12]: reduced height to the first capsule
effect on growth of the resistant plants ([12]; compared with weed-free control): no deleterious effects
root volume, SiRM (SiRM plants [13]): didn't show any significant differences in root volume

CCc1cnc(C2=NC(C)(C(C)C)C(=O)N2)c(C(=O)O)c1 (stereo not shown) [Imazethapyr, 5-ethyl-2-(4-methyl-5-oxo-4-propan-2-yl-1H-imidazol-2-yl) pyridine-3-carboxylic acid]
effect on WT plants at field recommended dosage ([1]; 20 g a.i. h^−1): deadly for the plants
ED50 WT [1]: 3.7 g a.i. ha^−1
state of SiRM plants at the highest dosage ([2]; 160 g a.i. h^−1): viable and fully recovered
ED50 SiRM [2]: 161 g a.i. ha^−1
dose up to which SiRM plants were not affected [2]: ≤ 80 g a.i. h^−1
RI (resistance index) [2]: 48

CCCOc1nn(C(=O)NS(=O)(=O)c2ccccc2C(=O)OC)c(=O)n1C [Propoxycarbazone, methyl 2-[(4-methyl-5-oxo-3-propoxy-1,2,4-triazole-1-carbonyl)sulfamoyl]benzoate]
ED50 WT [1]: 12 g a.i. ha^−1
response of WT plants in dose-response assay [1]: severe response of the WT plants already at a low dose of ⅛X
ED50 SiRM [2]: 96 g a.i. ha^−1
response of SiRM plants in dose-response assay [2]: able to maintain growth (and develop flowering buds) up to the recommended dose
RI (resistance index) [2]: 8

COc1cc(OC)nc(Sc2cccc(Cl)c2C(=O)O)n1 [Pyrithiobac sodium, sodium;2-chloro-6-(4,6-dimethoxypyrimidin-2-yl)sulfanylbenzoate]
ED50 WT [1]: 9.8 g a.i. ha^−1
response of WT plants in dose-response assay [1]: lethal for both lines
ED50 SiRM [2]: 202 g a.i. ha^−1
response of SiRM plants in dose-response assay [2]: able to survive up to the recommended dose
RI (resistance index) [2]: 20.5
reduction in shoot length, SiRM [2]: 66%

COc1cc(OC)nc(NC(=O)NS(=O)(=O)c2ncccc2OCC(F)(F)F)n1 [Trifloxysulfuron, 1-(4,6-dimethoxypyrimidin-2-yl)-3-[3-(2,2,2-trifluoroethoxy)pyridin-2-yl]sulfonylurea]
ED50 WT [1]: 33 g a.i. ha^−1
reduction in shoot DW, WT [1]: 63%
reduction in shoot length, WT [1]: 74%
ED50 SiRM [2]: 69 g a.i. ha^−1
RI (resistance index) [2]: 2
reduction in shoot DW, SiRM [2]: 18%
reduction in shoot length, SiRM [2]: 7%
